Read-outs that look alike come from different tables or passages of the source. Blank lines part the entries; values can stand above or below the molecule they belong to.
Tests used:
Assay in all cases: biochemical
Parameters in all cases: DiscoveRx KINOMEscan active site-directed competition binding; percent of control kinase bound to immobilised ligand
[1] = target: RAF1 (Homo sapiens, UniProt P04049)
[2] = target: T1, ITK (Homo sapiens, UniProt Q08881)
T1 sequence (Q08881 1-620): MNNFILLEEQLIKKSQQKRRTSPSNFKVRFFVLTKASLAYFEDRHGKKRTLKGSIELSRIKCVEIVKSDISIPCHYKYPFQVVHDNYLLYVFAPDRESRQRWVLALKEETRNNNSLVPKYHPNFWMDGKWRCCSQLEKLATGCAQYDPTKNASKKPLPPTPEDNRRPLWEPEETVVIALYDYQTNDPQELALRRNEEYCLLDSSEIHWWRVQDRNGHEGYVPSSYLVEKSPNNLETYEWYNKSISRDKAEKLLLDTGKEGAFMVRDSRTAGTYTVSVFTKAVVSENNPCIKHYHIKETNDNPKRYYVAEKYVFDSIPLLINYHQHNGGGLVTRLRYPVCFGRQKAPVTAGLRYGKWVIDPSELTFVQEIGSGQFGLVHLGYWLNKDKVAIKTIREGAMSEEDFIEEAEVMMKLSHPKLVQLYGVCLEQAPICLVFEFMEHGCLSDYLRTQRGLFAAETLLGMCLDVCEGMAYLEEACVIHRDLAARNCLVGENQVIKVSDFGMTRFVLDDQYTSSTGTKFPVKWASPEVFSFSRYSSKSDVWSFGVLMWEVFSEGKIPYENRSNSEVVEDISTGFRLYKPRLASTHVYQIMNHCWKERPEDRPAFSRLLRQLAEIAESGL

[3] = target: T2, PKMYT1 (Homo sapiens, UniProt Q99640)
T2 sequence (Q99640 1-499): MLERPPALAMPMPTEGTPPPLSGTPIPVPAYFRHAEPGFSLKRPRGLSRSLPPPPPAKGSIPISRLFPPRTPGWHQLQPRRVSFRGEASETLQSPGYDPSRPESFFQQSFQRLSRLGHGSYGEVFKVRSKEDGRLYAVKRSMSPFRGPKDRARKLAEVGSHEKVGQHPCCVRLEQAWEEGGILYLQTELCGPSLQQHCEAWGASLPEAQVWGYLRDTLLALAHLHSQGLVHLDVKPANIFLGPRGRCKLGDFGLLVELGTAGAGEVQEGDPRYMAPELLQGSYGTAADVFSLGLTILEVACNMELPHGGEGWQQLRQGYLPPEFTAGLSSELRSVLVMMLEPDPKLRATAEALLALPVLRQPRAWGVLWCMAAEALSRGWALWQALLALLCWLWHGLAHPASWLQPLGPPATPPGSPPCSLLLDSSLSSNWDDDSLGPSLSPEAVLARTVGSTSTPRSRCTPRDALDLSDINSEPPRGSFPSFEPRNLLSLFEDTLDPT

[4] = target: CSNK1D (Homo sapiens, UniProt P48730)
Chain of CSNK1D (P48730 whole entry): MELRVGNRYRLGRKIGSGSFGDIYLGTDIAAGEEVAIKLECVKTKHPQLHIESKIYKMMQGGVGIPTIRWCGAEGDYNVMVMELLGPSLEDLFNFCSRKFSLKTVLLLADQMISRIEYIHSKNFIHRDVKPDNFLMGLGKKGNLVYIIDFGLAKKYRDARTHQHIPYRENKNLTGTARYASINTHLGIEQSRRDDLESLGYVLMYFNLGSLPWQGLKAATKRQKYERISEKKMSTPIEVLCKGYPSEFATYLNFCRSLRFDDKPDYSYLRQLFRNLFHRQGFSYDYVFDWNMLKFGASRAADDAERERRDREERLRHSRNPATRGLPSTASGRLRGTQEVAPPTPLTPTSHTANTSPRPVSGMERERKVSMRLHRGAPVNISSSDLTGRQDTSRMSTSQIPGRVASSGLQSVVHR

[5] = target: T3, ANKK1 (Homo sapiens, UniProt Q8NFD2)
T3 sequence (Q8NFD2 1-765): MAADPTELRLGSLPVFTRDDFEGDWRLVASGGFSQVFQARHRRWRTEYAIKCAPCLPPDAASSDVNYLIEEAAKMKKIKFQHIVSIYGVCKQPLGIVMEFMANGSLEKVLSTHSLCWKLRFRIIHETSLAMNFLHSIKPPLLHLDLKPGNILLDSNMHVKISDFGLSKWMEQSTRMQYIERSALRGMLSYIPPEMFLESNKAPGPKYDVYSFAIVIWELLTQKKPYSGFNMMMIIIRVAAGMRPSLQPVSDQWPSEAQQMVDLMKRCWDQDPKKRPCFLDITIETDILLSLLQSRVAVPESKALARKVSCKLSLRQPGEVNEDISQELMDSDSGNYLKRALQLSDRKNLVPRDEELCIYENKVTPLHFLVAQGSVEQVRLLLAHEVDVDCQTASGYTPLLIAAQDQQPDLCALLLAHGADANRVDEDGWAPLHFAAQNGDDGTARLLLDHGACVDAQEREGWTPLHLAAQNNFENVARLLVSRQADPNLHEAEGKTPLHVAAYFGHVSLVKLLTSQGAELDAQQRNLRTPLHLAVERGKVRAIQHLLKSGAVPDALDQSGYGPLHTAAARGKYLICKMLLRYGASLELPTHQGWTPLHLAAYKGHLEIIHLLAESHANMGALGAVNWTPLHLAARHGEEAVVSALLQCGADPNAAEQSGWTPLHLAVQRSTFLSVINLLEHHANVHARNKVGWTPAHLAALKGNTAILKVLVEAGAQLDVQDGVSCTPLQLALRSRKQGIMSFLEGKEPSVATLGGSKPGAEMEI

[6] = target: T4, SGK3 (Homo sapiens, UniProt Q96BR1)
T4 sequence (Q96BR1 1-496): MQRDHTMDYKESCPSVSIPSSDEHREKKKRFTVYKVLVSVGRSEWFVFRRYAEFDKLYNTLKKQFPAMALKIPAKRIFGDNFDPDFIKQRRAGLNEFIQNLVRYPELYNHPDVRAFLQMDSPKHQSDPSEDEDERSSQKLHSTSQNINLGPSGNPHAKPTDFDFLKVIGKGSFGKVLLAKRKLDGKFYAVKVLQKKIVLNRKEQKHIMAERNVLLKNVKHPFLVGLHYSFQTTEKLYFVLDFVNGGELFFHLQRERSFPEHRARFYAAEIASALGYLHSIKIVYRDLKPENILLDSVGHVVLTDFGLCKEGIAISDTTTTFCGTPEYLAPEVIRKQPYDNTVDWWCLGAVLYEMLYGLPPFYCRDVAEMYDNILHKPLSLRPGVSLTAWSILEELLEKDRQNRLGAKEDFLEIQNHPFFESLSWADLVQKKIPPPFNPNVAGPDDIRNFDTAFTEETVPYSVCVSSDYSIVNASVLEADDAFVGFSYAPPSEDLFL

[7] = read-out: Olaparib / %Ctrl @ 10000nM
[8] = read-out: Talazoparib (BMN 673) / %Ctrl @ 10000nM
[9] = read-out: Rucaparib / %Ctrl @ 10000nM, binding competition, % of control
[10] = read-out: Niraparib (MK-4827) / %Ctrl @ 10000nM

Chain of RAF1 (P04049 whole entry): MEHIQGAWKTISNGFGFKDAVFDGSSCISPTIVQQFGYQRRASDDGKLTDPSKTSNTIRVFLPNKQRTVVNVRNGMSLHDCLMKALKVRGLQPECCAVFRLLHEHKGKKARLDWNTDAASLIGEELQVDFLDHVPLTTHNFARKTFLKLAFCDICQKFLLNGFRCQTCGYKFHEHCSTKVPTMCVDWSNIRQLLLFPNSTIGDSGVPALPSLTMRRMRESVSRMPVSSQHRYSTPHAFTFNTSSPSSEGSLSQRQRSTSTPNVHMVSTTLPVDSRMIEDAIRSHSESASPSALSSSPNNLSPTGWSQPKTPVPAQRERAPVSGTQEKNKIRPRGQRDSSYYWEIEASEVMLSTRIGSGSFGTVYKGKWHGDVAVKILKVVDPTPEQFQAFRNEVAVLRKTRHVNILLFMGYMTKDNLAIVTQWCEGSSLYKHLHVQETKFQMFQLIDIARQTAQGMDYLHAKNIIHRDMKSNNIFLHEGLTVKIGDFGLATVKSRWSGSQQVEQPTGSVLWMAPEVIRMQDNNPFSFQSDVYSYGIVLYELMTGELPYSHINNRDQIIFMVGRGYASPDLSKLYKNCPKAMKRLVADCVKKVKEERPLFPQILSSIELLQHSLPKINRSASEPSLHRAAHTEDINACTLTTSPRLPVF

percent of control binding at 10 µM [1, 7]: 89%
percent of control binding at 10 µM [2, 7]: 100%
percent of control binding at 10 µM [3, 7]: 100%
percent of control binding at 10 µM [4, 7]: 96%
percent of control binding at 10 µM [5, 7]: 90%
percent of control binding at 10 µM [6, 7]: 79%
Structure (SMILES): O=C(c1cc(Cc2n[nH]c(=O)c3ccccc23)ccc1F)N1CCN(C(=O)C2CC2)CC1 [Olaparib]

percent of control binding at 10 µM [1, 8]: 90%
percent of control binding at 10 µM [2, 8]: 84%
percent of control binding at 10 µM [3, 8]: 100%
percent of control binding at 10 µM [4, 8]: 100%
percent of control binding at 10 µM [5, 8]: 100%
percent of control binding at 10 µM [6, 8]: 100%
Structure (SMILES): Cn1ncnc1[C@H]1c2n[nH]c(=O)c3cc(F)cc(c23)N[C@@H]1c1ccc(F)cc1 [Talazoparib]

percent of control binding at 10 µM [1, 9]: 99%
percent of control binding at 10 µM [2, 9]: 100%
percent of control binding at 10 µM [3, 9]: 100%
percent of control binding at 10 µM [4, 9]: 63%
percent of control binding at 10 µM [5, 9]: 71%
percent of control binding at 10 µM [6, 9]: 38%
Structure (SMILES): CNCc1ccc(-c2[nH]c3cc(F)cc4c3c2CCNC4=O)cc1 [Rucaparib]

Structure (SMILES): NC(=O)c1cccc2cn(-c3ccc([C@@H]4CCCNC4)cc3)nc12 [Niraparib]
percent of control binding at 10 µM [1, 10]: 93%
percent of control binding at 10 µM [2, 10]: 91%
percent of control binding at 10 µM [3, 10]: 93%
percent of control binding at 10 µM [4, 10]: 57%
percent of control binding at 10 µM [5, 10]: 100%
percent of control binding at 10 µM [6, 10]: 98%

Reference: PMC7026418, “The kinase polypharmacology landscape of clinical PARP inhibitors” (Scientific Reports, 2020)
